Source: patent US10392397B2, “Heterocyclic thiosemicarbazone derivatives and their therapeutical applications” (NANTBIO, INC., priority 2015, dated 2019)

Legend:
Format in all cases: cell-based
MDA-MB-231/ATCC = assay: SRB growth inhibition, MDA-MB-231/ATCC; details: Homo sapiens, Breast Cancer, 48 h
Description: (§1) Human tumor cell lines were grown in RPM(1640 medium containing 5% fetal bovine serum and 2 mM L-glutamine. For a typical screening experiment, cells were inoculated into 96 well microtiter plates in 100 μL at plating densities ranging from 5,000 to 40,000 cells/well depending on the doubling time of individual cell lines. After cell inoculation, the microtiter plates were incubated at 37° C., 5% CO2, 95% air and 100% relative humidity for 24 h prior to addition of Compound 3 above.
(§2) After 24 h, two plates of each cell line were fixed in situ with TCA, to represent a measurement of the cell population for each cell line at the time of drug addition (Tz). […]
(§3) Following drug addition, the plates were incubated for an additional 48 h at 37° C., 5% CO2, 95% air, and 100% relative humidity. […] Bound stain was subsequently solubilized with 10 mM trizma base, and the absorbance was read on an automated plate reader at a wavelength of 515 nm. […] Using the seven absorbance measurements [time zero, (Tz), control growth, (C), and test growth in the presence of drug at the five concentration levels (Ti)], the percentage growth was calculated at each of the drug concentrations levels. Percentage growth inhibition was calculated as: [(Ti-Tz)/(C-Tz)]×100 for concentrations for which Ti>/=Tz [(Ti-Tz)/Tz]×100 for concentrations for which Ti<Tz. […]

SK-MEL-2 = assay: SRB growth inhibition, SK-MEL-2; details: Homo sapiens, SK-MEL-2, Melanoma, 48 h
Description: as §1, §2, §3

HOP-92 = assay: SRB growth inhibition, HOP-92; details: Homo sapiens, HOP-92, Non-Small Cell Lung Cancer, 48 h
Description: as §1, §2, §3

CAKI-1 = assay: SRB growth inhibition, CAKI-1; details: Homo sapiens, CAKI-1, Renal Cancer, 48 h
Description: as §1, §2, §3

M14 = assay: SRB growth inhibition, M14; details: Homo sapiens, M14, Melanoma, 48 h
Description: as §1, §2, §3

HCT-116 = assay: SRB growth inhibition, HCT-116; details: Homo sapiens, HCT-116, Colon Cancer, 48 h
Description: as §1, §2, §3

OVCAR-8 = assay: SRB growth inhibition, OVCAR-8; details: Homo sapiens, OVCAR-8, Ovarian Cancer, 48 h
Description: as §1, §2, §3

MDA-MB-468 = assay: SRB growth inhibition, MDA-MB-468; details: Homo sapiens, MDA-MB-468, Breast Cancer, 48 h
Description: as §1, §2, §3

U251 = assay: SRB growth inhibition, U251; details: Homo sapiens, U-251, U251, CNS Cancer, 48 h
Description: as §1, §2, §3

PC-3 = assay: SRB growth inhibition, PC-3; details: Homo sapiens, PC-3, Prostate Cancer, 48 h
Description: as §1, §2, §3

HS 578T = assay: SRB growth inhibition, HS 578T; details: Homo sapiens, Breast Cancer, 48 h
Description: as §1, §2, §3

OVCAR-5 = assay: SRB growth inhibition, OVCAR-5; details: Homo sapiens, OVCAR-5, Ovarian Cancer, 48 h
Description: as §1, §2, §3

MCF7 = assay: SRB growth inhibition, MCF7; details: Homo sapiens, MCF7, Breast Cancer, 48 h
Description: as §1, §2, §3

786-0 = assay: SRB growth inhibition, 786-0; details: Homo sapiens, 786-0, Renal Cancer, 48 h
Description: as §1, §2, §3

COLO 205 = assay: SRB growth inhibition, COLO 205; details: Homo sapiens, COLO 205, Colon Cancer, 48 h
Description: as §1, §2, §3

BT-549 = assay: SRB growth inhibition, BT-549; details: Homo sapiens, BT-549, Breast Cancer, 48 h
Description: as §1, §2, §3

LOX IMVI = assay: SRB growth inhibition, LOX IMVI; details: Homo sapiens, Melanoma, 48 h
Description: as §1, §2, §3

DU-145 = assay: SRB growth inhibition, DU-145; details: Homo sapiens, DU-145, Prostate Cancer, 48 h
Description: as §1, §2, §3

UACC-257 = assay: SRB growth inhibition, UACC-257; details: Homo sapiens, UACC-257, Melanoma, 48 h
Description: as §1, §2, §3

NCI/ADR-RES = assay: SRB growth inhibition, NCI/ADR-RES; details: Homo sapiens, Ovarian Cancer, 48 h
Description: as §1, §2, §3

NCI-H23 = assay: SRB growth inhibition, NCI-H23; details: Homo sapiens, NCI-H23, Non-Small Cell Lung Cancer, 48 h
Description: as §1, §2, §3

SF-539 = assay: SRB growth inhibition, SF-539; details: Homo sapiens, SF-539, CNS Cancer, 48 h
Description: as §1, §2, §3

MOLT-4 = assay: SRB growth inhibition, MOLT-4; details: Homo sapiens, MOLT-4, Leukemia, 48 h
Description: as §1, §2, §3

SW-620 = assay: SRB growth inhibition, SW-620; details: Homo sapiens, SW-620, Colon Cancer, 48 h
Description: as §1, §2, §3

SNB-75 = assay: SRB growth inhibition, SNB-75; details: Homo sapiens, SNB-75, CNS Cancer, 48 h
Description: as §1, §2, §3

SR = assay: SRB growth inhibition, SR; details: Homo sapiens, Leukemia, 48 h
Description: as §1, §2, §3

EKVX = assay: SRB growth inhibition, EKVX; details: Homo sapiens, Non-Small Cell Lung Cancer, 48 h
Description: as §1, §2, §3

SN12C = assay: SRB growth inhibition, SN12C; details: Homo sapiens, Renal Cancer, 48 h
Description: as §1, §2, §3

OVCAR-4 = assay: SRB growth inhibition, OVCAR-4; details: Homo sapiens, OVCAR-4, Ovarian Cancer, 48 h
Description: as §1, §2, §3

T-47D = assay: SRB growth inhibition, T-47D; details: Homo sapiens, T47D, Breast Cancer, 48 h
Description: as §1, §2, §3

SK-MEL-28 = assay: SRB growth inhibition, SK-MEL-28; details: Homo sapiens, SK-MEL-28, Melanoma, 48 h
Description: as §1, §2, §3

A498 = assay: SRB growth inhibition, A498; details: Homo sapiens, A498, Renal Cancer, 48 h
Description: as §1, §2, §3

NCI-H522 = assay: SRB growth inhibition, NCI-H522; details: Homo sapiens, NCI-H522, Non-Small Cell Lung Cancer, 48 h
Description: as §1, §2, §3

SF-295 = assay: SRB growth inhibition, SF-295; details: Homo sapiens, SF-295, CNS Cancer, 48 h
Description: as §1, §2, §3

MDA-MB-435 = assay: SRB growth inhibition, MDA-MB-435; details: Homo sapiens, MDA-MB-435, Melanoma, 48 h
Description: as §1, §2, §3

NCI-H460 = assay: SRB growth inhibition, NCI-H460; details: Homo sapiens, NCI-H460, Non-Small Cell Lung Cancer, 48 h
Description: as §1, §2, §3

HCC-2998 = assay: SRB growth inhibition, HCC-2998; details: Homo sapiens, HCC-2998, Colon Cancer, 48 h
Description: as §1, §2, §3

NCI-H322M = assay: SRB growth inhibition, NCI-H322M; details: Homo sapiens, Non-Small Cell Lung Cancer, 48 h
Description: as §1, §2, §3

OVCAR-3 = assay: SRB growth inhibition, OVCAR-3; details: Homo sapiens, OVCAR-3, Ovarian Cancer, 48 h
Description: as §1, §2, §3

HL-60(TB) = assay: SRB growth inhibition, HL-60(TB); details: Homo sapiens, Leukemia, 48 h
Description: as §1, §2, §3

HCT-15 = assay: SRB growth inhibition, HCT-15; details: Homo sapiens, HCT-15, Colon Cancer, 48 h
Description: as §1, §2, §3

UO-31 = assay: SRB growth inhibition, UO-31; details: Homo sapiens, UO-31, Renal Cancer, 48 h
Description: as §1, §2, §3

HOP-62 = assay: SRB growth inhibition, HOP-62; details: Homo sapiens, HOP-62, Non-Small Cell Lung Cancer, 48 h
Description: as §1, §2, §3

TK-10 = assay: SRB growth inhibition, TK-10; details: Homo sapiens, TK-10, Renal Cancer, 48 h
Description: as §1, §2, §3

NCI-H226 = assay: SRB growth inhibition, NCI-H226; details: Homo sapiens, NCI-H226, Non-Small Cell Lung Cancer, 48 h
Description: as §1, §2, §3

IGROV1 = assay: SRB growth inhibition, IGROV1; details: Homo sapiens, IGROV-1, IGROV1, Ovarian Cancer, 48 h
Description: as §1, §2, §3

SNB-19 = assay: SRB growth inhibition, SNB-19; details: Homo sapiens, SNB-19, CNS Cancer, 48 h
Description: as §1, §2, §3

ACHN = assay: SRB growth inhibition, ACHN; details: Homo sapiens, Renal Cancer, 48 h
Description: as §1, §2, §3

MALME-3M = assay: SRB growth inhibition, MALME-3M; details: Homo sapiens, Melanoma, 48 h
Description: as §1, §2, §3

UACC-62 = assay: SRB growth inhibition, UACC-62; details: Homo sapiens, UACC-62, Melanoma, 48 h
Description: as §1, §2, §3

K-562 = assay: SRB growth inhibition, K-562; details: Homo sapiens, K562, K-562, Leukemia, 48 h
Description: as §1, §2, §3

RXF 393 = assay: SRB growth inhibition, RXF 393; details: Homo sapiens, RXF 393, Renal Cancer, 48 h
Description: as §1, §2, §3

SK-OV-3 = assay: SRB growth inhibition, SK-OV-3; details: Homo sapiens, SK-OV-3, Ovarian Cancer, 48 h
Description: as §1, §2, §3

SF-268 = assay: SRB growth inhibition, SF-268; details: Homo sapiens, SF-268, CNS Cancer, 48 h
Description: as §1, §2, §3

A549/ATCC = assay: SRB growth inhibition, A549/ATCC; details: Homo sapiens, Non-Small Cell Lung Cancer, 48 h
Description: as §1, §2, §3

HT29 = assay: SRB growth inhibition, HT29; details: Homo sapiens, HT-29, HT29, Colon Cancer, 48 h
Description: as §1, §2, §3

RPMI-8226 = assay: SRB growth inhibition, RPMI-8226; details: Homo sapiens, RPMI-8226, Leukemia, 48 h
Description: as §1, §2, §3

SK-MEL-5 = assay: SRB growth inhibition, SK-MEL-5; details: Homo sapiens, SK-MEL-5, Melanoma, 48 h
Description: as §1, §2, §3

CCRF-CEM = assay: SRB growth inhibition, CCRF-CEM; details: Homo sapiens, Leukemia, 48 h
Description: as §1, §2, §3

KM12 = assay: SRB growth inhibition, KM12; details: Homo sapiens, KM12, Colon Cancer, 48 h
Description: as §1, §2, §3

S=C(N/N=C1/CCOc2cccnc21)N1CCN(c2ccccn2)CC1 [Example 3, (Z)—N′-(2H-pyrano[3,2-b]pyridin-4(3H)-ylidene)-4-(pyridin-2-yl)piperazine-1-carbothiohydrazide]
GI50 (MDA-MB-231/ATCC): 74.8 nM | GI50 (SK-MEL-2): 799 nM | GI50 (HOP-92): 16.7 nM | GI50 (CAKI-1): 151 nM | GI50 (M14): 37.5 nM | GI50 (HCT-116): < 10 nM | GI50 (OVCAR-8): 37.4 nM | GI50 (MDA-MB-468): < 10 nM | GI50 (U251): 26.5 nM | GI50 (PC-3): < 10 nM | GI50 (HS 578T): 754 nM | GI50 (OVCAR-5): 991 nM | GI50 (MCF7): < 10 nM | GI50 (786-0): 77.1 nM | GI50 (COLO 205): < 10 nM | GI50 (BT-549): 71.8 nM | GI50 (LOX IMVI): 25.1 nM | GI50 (DU-145): 345 nM | GI50 (UACC-257): 11.8 nM | GI50 (NCI/ADR-RES): 37.4 nM | GI50 (NCI-H23): 32.1 nM | GI50 (SF-539): 1160 nM | GI50 (MOLT-4): < 10 nM | GI50 (SW-620): < 10 nM | GI50 (SNB-75): 1080 nM | GI50 (SR): 65.5 nM | GI50 (EKVX): 140 nM | GI50 (SN12C): 1490 nM | GI50 (OVCAR-4): 16.5 nM | GI50 (T-47D): < 10 nM | GI50 (SK-MEL-28): 472 nM | GI50 (A498): 192 nM | GI50 (NCI-H522): 505 nM | GI50 (SF-295): 232 nM | GI50 (MDA-MB-435): 271 nM | GI50 (NCI-H460): 38.8 nM | GI50 (HCC-2998): 701 nM | GI50 (NCI-H322M): 221 nM | GI50 (OVCAR-3): < 10 nM | GI50 (HL-60(TB)): 14.9 nM | GI50 (HCT-15): < 10 nM | GI50 (UO-31): 132 nM | GI50 (HOP-62): 37.2 nM | GI50 (TK-10): 748 nM | GI50 (NCI-H226): 338 nM | GI50 (IGROV1): < 10 nM | GI50 (SNB-19): 433 nM | GI50 (ACHN): 196 nM | GI50 (MALME-3M): 1290 nM | GI50 (UACC-62): 170 nM | GI50 (K-562): < 10 nM | GI50 (RXF 393): 1340 nM | GI50 (SK-OV-3): 82 nM | GI50 (SF-268): 410 nM | GI50 (A549/ATCC): 155 nM | GI50 (HT29): < 10 nM | GI50 (RPMI-8226): < 10 nM | GI50 (SK-MEL-5): 222 nM | GI50 (CCRF-CEM): < 10 nM | GI50 (KM12): 225 nM
